This is an account of results in patent US8399683B2 (TetraLogic Pharmaceuticals, priority 2008, dated 2013).

What is called Kd is the equilibrium constant for the complex coming apart. One may read the CC50 as the concentration that lowers cell viability or growth by half. A low value points to harm at low concentration.

One experiment concerns the target cIAP-1 BIR-3 (Homo sapiens, UniProt Q13490). Briefly: Fluorescence polarization binding affinity to cIAP-1 BIR-3 (competition with AbuRPF-K(5-Fam)-NH2). The note with it: 5 nM labeled peptide, 40 nM BIR3, 15 min at RT, pH 7.5; reported as ranges; read-out: KD (c-IAP-1 BIR3). The method, then:
(§1) The binding affinities of the compounds are reported as a KD value (μM). Briefly, various concentrations of test peptides were mixed with 5 nM of the fluorescently labeled peptide (i.e., a mutated N-terminal Smac peptide—AbuRPF-K(5-Fam)-NH2) and 40 nM of the respective IAP BIR3 for 15 min at RT in […] of 0.1M Potassium Phosphate buffer, pH 7.5 containing […] bovine g-globulin. Following incubation, the polarization values (mP) were measured on a Victor2V (available from PerkinElmer Life Sciences) using a 485 nm excitation filter and a 520 nm emission filter. The reported KD values are supplied as ranges (A=<0.1 μM, B=0.1 μM to 1 μM, C>1 μM to 10 μM, D=>10 μM).
(In general: Fluorescence polarisation rises when a labelled molecule tumbles more slowly, as on binding a larger partner.)

The next experiment deals with T1, XIAP BIR-3 (Homo sapiens, UniProt P98170).
T1 construct: 40 nM of the respective IAP BIR3
T1 sequence (P98170 241-356 limits assumed): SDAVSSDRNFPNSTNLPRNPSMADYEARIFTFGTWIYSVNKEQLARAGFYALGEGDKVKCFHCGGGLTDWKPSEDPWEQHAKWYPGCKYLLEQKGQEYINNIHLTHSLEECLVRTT
The experiment is described as follows: Fluorescence polarization binding affinity to XIAP BIR-3 (competition with AbuRPF-K(5-Fam)-NH2). The note with it: 5 nM labeled peptide, 40 nM BIR3, 15 min at RT, pH 7.5; reported as ranges. The method, then:
as §1

The next experiment relates to SK-OV-3 cells. The experiment is described as follows: Growth inhibition of ovarian cancer cell line SK-OV-3 (MTT assay, cell survival). The experiment is classed as cell-based. The conditions noted are these: Homo sapiens, drug concentration that results in 50% cell survival, 72 hrs incubation, reported as ranges. Here is the method: Compounds of the invention also were tested for their ability to inhibit the growth of an ovarian cancer cell line, SK-OV-3. A known assay previously used for measuring cell growth (as described in Hansen, M. B., Nielsen, S. E., and Berg, K. (1989) J. Immunol. Methods 119, 203-210 and incorporated herein by reference in its entirety) was used. Briefly, SK-OV-3 cells are seeded in 96-well plates in McCoy's medium containing 10% fetal bovine serum albumin (5,000 per well) and incubated overnight at 37° C. The next day, test compounds are added at various concentrations (0.003-10 μM) and the plates are incubated at 37° C. for an additional 72 hrs. This incubation time was considered to be optimal for measuring inhibitory effects of the different compounds tested. 50 microliters of 5 mg/mL MTT reagent is added to each well and the plates are incubated at 37° C. for another three (3) hours. At the end of the three (3) hour incubation period, 50 microliters of DMSO is added to each well to dissolve cells and the optical density (OD) of the wells is measured with a microplate reader (Victor^2 1420, Wallac, Finland) at 535 nm. Cell survival (CS) was calculated using the following equation: CS=(OD treated well/mean OD control wells)×100%.
The CC50 (reported in the following tables), is defined as the drug concentration that results in 50% cell survival (CS), and is derived by calculating the point where the dose-response curve crosses the 50% CS point using GraphPad Prism. The reported CC50 values are supplied as ranges (A=<0.1 μM, B=0.1 μM to 1 μM, C=>1 μM to 10 μM, D=>10 μM).
(Formazan colour is commonly taken as a measure of viable cells.)

Some results are limits rather than exact numbers.

cIAP-1 BIR-3, sequence (Q13490 266-352 limits assumed): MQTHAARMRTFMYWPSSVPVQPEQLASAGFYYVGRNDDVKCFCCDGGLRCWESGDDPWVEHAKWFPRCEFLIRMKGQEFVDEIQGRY

Consider `CN[C@@H](C)C(=O)N[C@H](C(=O)N1CC[C@@H]2[C@H]1[C@@H](c1c[nH]c3cc(F)ccc13)CN2C(=O)C(F)(F)F)C1CCCCC1` [Example 37, N-{1-Cyclohexyl-2-[6-(6-fluoro-1H-indol-3-yl)-4-(2,2,2-trifluoro-acetyl)-hexahydro-pyrrolo[3,2-b]pyrrol-1-yl]-2-oxo-ethyl}-2-methylamino-propionamide], for which the Kd at cIAP-1 BIR-3 and at XIAP BIR-3 was less than 100 nM in each case. The CC50 with SK-OV-3 cells is less than 100 nM.

As for `CN[C@@H](C)C(=O)N[C@H](C(=O)N1CC[C@@H]2[C@H]1[C@@H](c1c[nH]c3cc(F)ccc13)CN2C(=O)c1ccccc1)C1CCCCC1` [Example 38, N-{2-[4-Benzoyl-6-(6-fluoro-1H-indol-3-yl)-hexahydro-pyrrolo[3,2-b]pyrrol-1-yl]-1-cyclohexyl-2-oxo-ethyl}-2-methylamino-propionamide], the Kd at cIAP-1 BIR-3 and at XIAP BIR-3 was less than 100 nM each time. This molecule also showed a CC50 with SK-OV-3 cells of less than 100 nM.

As for `CN[C@@H](C)C(=O)N[C@H](C(=O)N1CC[C@@H]2[C@H]1[C@@H](c1c[nH]c3cc(F)ccc13)CN2C(=O)Cc1ccccc1)C1CCCCC1` [Example 39, N-{1-Cyclohexyl-2-[6-(6-fluoro-1H-indol-3-yl)-4-phenylacetyl-hexahydro-pyrrolo[3,2-b]pyrrol-1-yl]-2-oxo-ethyl}-2-methylamino-propionamide], the Kd on cIAP-1 BIR-3 and on XIAP BIR-3 was less than 100 nM throughout. Further, the cytotoxic concentration (CC50) with SK-OV-3 cells is less than 100 nM.

In the case of `CN[C@@H](C)C(=O)N[C@H](C(=O)N1CC[C@@H]2[C@H]1[C@@H](c1c[nH]c3cc(F)ccc13)CN2C(=O)C1CC1)C1CCCCC1` [Example 40, N-{1-Cyclohexyl-2-[4-cyclopropanecarbonyl-6-(6-fluoro-1H-indol-3-yl)-hexahydro-pyrrolo[3,2-b]pyrrol-1-yl]-2-oxo-ethyl}-2-methylamino-propionamide], the Kd at cIAP-1 BIR-3 and at XIAP BIR-3 was less than 100 nM throughout. Also, the CC50 in the experiment on SK-OV-3 cells is less than 100 nM.

With `CCOC(=O)CN1C[C@H](c2c[nH]c3cc(F)ccc23)[C@@H]2[C@H]1CCN2C(=O)[C@@H](NC(=O)[C@H](C)NC)C1CCCCC1` [Example 41, [4-[2-Cyclohexyl-2-(2-methylamino-propionylamino)-acetyl]-3-(6-fluoro-1H-indol-3-yl)-hexahydro-pyrrolo[3,2-b]pyrrol-1-yl]-acetic acid ethyl ester], the Kd on cIAP-1 BIR-3 and on XIAP BIR-3 was less than 100 nM throughout. In addition, the CC50 in the experiment with SK-OV-3 cells lay within 100 to 1000 nM.

Regarding `CN[C@@H](C)C(=O)N[C@H](C(=O)N1CC[C@@H]2[C@H]1[C@@H](c1c[nH]c3cc(F)ccc13)CN2CC(=O)O)C1CCCCC1` [Example 42, [4-[2-Cyclohexyl-2-(2-methylamino-propionylamino)-acetyl]-3-(6-fluoro-1H-indol-3-yl)-hexahydro-pyrrolo[3,2-b]pyrrol-1-yl]-acetic acid], the Kd at cIAP-1 BIR-3 is less than 100 nM; on XIAP BIR-3, 100 to 1000 nM. In addition, the CC50 with SK-OV-3 cells was in the range of 1000 to 10000 nM.

For the molecule `CN[C@@H](C)C(=O)N[C@H](C(=O)N1CC[C@@H]2[C@H]1[C@@H](c1c[nH]c3cc(F)ccc13)CN2S(C)(=O)=O)C1CCCCC1` [Example 43, N-{1-Cyclohexyl-2-[6-(6-fluoro-1H-indol-3-yl)-4-methanesulfonyl-hexahydro-pyrrolo[3,2-b]pyrrol-1-yl]-2-oxo-ethyl}-2-methylamino-propionamide], the Kd on cIAP-1 BIR-3 and at XIAP BIR-3 was less than 100 nM each time. Moreover, the CC50 in the experiment on SK-OV-3 cells is less than 100 nM.

`CN[C@@H](C)C(=O)N[C@H](C(=O)N1CC[C@@H]2[C@H]1[C@H](c1c[nH]c3cc(F)ccc13)CN2S(C)(=O)=O)C1CCCCC1` [Example 44]: the dissociation constant Kd was 100 to 1000 nM on cIAP-1 BIR-3 and 1000 to 10000 nM on XIAP BIR-3. This molecule gave a CC50 in the experiment on SK-OV-3 cells of 1000 to 10000 nM.

For the molecule `CC[C@H](NC(=O)[C@H](C)NC)C(=O)N1CC[C@@H]2[C@H]1[C@H](c1c[nH]c3cc(F)ccc13)CN2S(C)(=O)=O` [Example 45, N-{1-[6-(6-Fluoro-1H-indol-3-yl)-4-methanesulfonyl-hexahydro-pyrrolo[3,2-b]pyrrole-1-carbonyl]-propyl}-2-methylamino-propionamide], the equilibrium dissociation constant (Kd) on cIAP-1 BIR-3 is 1000 to 10000 nM; at XIAP BIR-3, greater than 10000 nM. Moreover, the CC50 in the experiment on SK-OV-3 cells is greater than 10000 nM.

Turning to `CC[C@H](NC(=O)[C@H](C)NC)C(=O)N1CC[C@@H]2[C@H]1[C@@H](c1c[nH]c3cc(F)ccc13)CN2S(C)(=O)=O` [Example 46, N-{1-[6-(6-Fluoro-1H-indol-3-yl)-4-methanesulfonyl-hexahydro-pyrrolo[3,2-b]pyrrole-1-carbonyl]-propyl}-2-methylamino-propionamide], the Kd at cIAP-1 BIR-3 and at XIAP BIR-3 was less than 100 nM throughout. In the experiment with SK-OV-3 cells, this molecule had a 50% cytotoxic concentration (CC50) of less than 100 nM.

For `CN[C@@H](C)C(=O)N[C@H](C(=O)N1CC[C@@H]2[C@H]1[C@H](c1c[nH]c3cc(F)ccc13)CN2S(C)(=O)=O)C(C)C` [Example 47, N-{1-[6-(6-Fluoro-1H-indol-3-yl)-4-methanesulfonyl-hexahydro-pyrrolo[3,2-b]pyrrole-1-carbonyl]-2-methyl-propyl}-2-methylamino-propionamide], the Kd on cIAP-1 BIR-3 and at XIAP BIR-3 was 100 to 1000 nM each time. In the experiment with SK-OV-3 cells, this molecule displayed a CC50 greater than 10000 nM.

In the case of `CN[C@@H](C)C(=O)N[C@H](C(=O)N1CC[C@@H]2[C@H]1[C@@H](c1c[nH]c3cc(F)ccc13)CN2S(C)(=O)=O)C(C)C` [Example 48, N-{1-[6-(6-Fluoro-1H-indol-3-yl)-4-methanesulfonyl-hexahydro-pyrrolo[3,2-b]pyrrole-1-carbonyl]-2-methyl-propyl}-2-methylamino-propionamide], the Kd at cIAP-1 BIR-3 and on XIAP BIR-3 was less than 100 nM each time. Also, the CC50 with SK-OV-3 cells was less than 100 nM.

On to `CN[C@@H](C)C(=O)N[C@H](C(=O)N1CC[C@@H]2[C@H]1[C@H](c1c[nH]c3cc(F)ccc13)CN2S(C)(=O)=O)C(C)(C)C` [Example 49, N-{1-[6-(6-Fluoro-1H-indol-3-yl)-4-methanesulfonyl-hexahydro-pyrrolo[3,2-b]pyrrole-1-carbonyl]-2,2-dimethyl-propyl}-2-methylamino-propionamide], for which the Kd was 100 to 1000 nM on cIAP-1 BIR-3 and 1000 to 10000 nM at XIAP BIR-3. In addition, the CC50 in the experiment with SK-OV-3 cells was greater than 10000 nM.

For `CN[C@@H](C)C(=O)N[C@H](C(=O)N1CC[C@@H]2[C@H]1[C@@H](c1c[nH]c3cc(F)ccc13)CN2S(C)(=O)=O)C(C)(C)C` [Example 50, N-{1-[6-(6-Fluoro-1H-indol-3-yl)-4-methanesulfonyl-hexahydro-pyrrolo[3,2-b]pyrrole-1-carbonyl]-2,2-dimethyl-propyl}-2-methylamino-propionamide], the Kd at cIAP-1 BIR-3 and on XIAP BIR-3 was less than 100 nM in each case. In the experiment with SK-OV-3 cells, this molecule displayed a CC50 of less than 100 nM.

On to `CN[C@@H](C)C(=O)N[C@@H](CO)C(=O)N1CC[C@@H]2[C@H]1[C@H](c1c[nH]c3cc(F)ccc13)CN2S(C)(=O)=O` [Example 51, N-{2-[6-(6-Fluoro-1H-indol-3-yl)-4-methanesulfonyl-hexahydro-pyrrolo[3,2-b]pyrrol-1-yl]-1-hydroxymethyl-2-oxo-ethyl}-2-methylamino-propionamide], for which the values for the dissociation constant (Kd) at cIAP-1 BIR-3 and at XIAP BIR-3 were 1000 to 10000 nM and greater than 10000 nM, respectively. The same molecule displayed a CC50 with SK-OV-3 cells greater than 10000 nM.

`CN[C@@H](C)C(=O)N[C@@H](CO)C(=O)N1CC[C@@H]2[C@H]1[C@@H](c1c[nH]c3cc(F)ccc13)CN2S(C)(=O)=O` [Example 52, N-{2-[6-(6-Fluoro-1H-indol-3-yl)-4-methanesulfonyl-hexahydro-pyrrolo[3,2-b]pyrrol-1-yl]-1-hydroxymethyl-2-oxo-ethyl}-2-methylamino-propionamide]: the Kd at cIAP-1 BIR-3 and on XIAP BIR-3 was less than 100 nM in each case. For the same molecule, in the experiment with SK-OV-3 cells, the CC50 lay in the range of 1000 to 10000 nM.

With `CN[C@@H](C)C(=O)N[C@@H](COC)C(=O)N1CC[C@@H]2[C@H]1[C@H](c1c[nH]c3cc(F)ccc13)CN2S(C)(=O)=O` [Example 53, N-{2-[6-(6-Fluoro-1H-indol-3-yl)-4-methanesulfonyl-hexahydro-pyrrolo[3,2-b]pyrrol-1-yl]-1-methoxymethyl-2-oxo-ethyl}-2-methylamino-propionamide], the Kd is 1000 to 10000 nM on cIAP-1 BIR-3 and greater than 10000 nM on XIAP BIR-3. Further, the CC50 with SK-OV-3 cells was greater than 10000 nM.
